Each block holds one compound with its values, some of them ahead of it. Non-standard residues stand in square brackets, D forms with d. Residues, ends and D or L forms follow the SMILES beside them. *: point of attachment. Octanoyl = CCCCCCCC(=O)*; X1 = CC(C)C[C@@H](CN)N*; Dap = NC[C@H](N)C(=O)O
Tests used:
[1] = target: T1, Membrane-bound ghrelin O-acyltransferase MBOAT4 (Homo sapiens, UniProt Q96T53); assay: Inhibition of human His-tagged GOAT expressed in baculovirus infected Sf9 cell membrane using desacyl-ghrelin-biotin and octanoyl-CoA as substrate incubated for 1 hr by ELISA; type: cell membranes
T1 sequence (Q96T53 whole entry): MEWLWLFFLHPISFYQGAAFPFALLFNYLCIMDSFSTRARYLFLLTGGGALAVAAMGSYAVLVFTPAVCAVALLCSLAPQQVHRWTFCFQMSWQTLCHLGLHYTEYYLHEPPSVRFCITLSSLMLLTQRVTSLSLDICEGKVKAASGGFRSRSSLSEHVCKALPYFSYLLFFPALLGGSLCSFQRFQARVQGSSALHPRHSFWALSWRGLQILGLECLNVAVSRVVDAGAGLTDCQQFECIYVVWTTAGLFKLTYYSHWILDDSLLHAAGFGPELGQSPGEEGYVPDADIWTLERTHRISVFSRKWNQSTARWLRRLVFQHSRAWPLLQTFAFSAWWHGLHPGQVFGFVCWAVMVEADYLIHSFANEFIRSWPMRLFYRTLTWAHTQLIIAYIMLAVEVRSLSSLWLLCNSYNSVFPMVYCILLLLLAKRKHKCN

[2] = In vivo inhibition of GOAT in C57BL/6 mouse assessed as reduction in ratio of AG to total-ghrelin at 18 mg/kg, po BID administered via gavage for 3 days by ELISA relative to control; type: functional; conditions: C57BL/6, po, 72 h, time 3 day
[3] = target: T2, Membrane-bound ghrelin O-acyltransferase MBOAT4 (Mus musculus, UniProt P0C7A3); assay: Inhibition of N-terminal His10-tagged mouse GOAT expressed in baculovirus infected sf9 insect cell membrane using proghrelin-His8 and [3H]octanoyl CoA as substrate by scintillation counting method; type: cell membranes
T2 sequence (P0C7A3 whole entry): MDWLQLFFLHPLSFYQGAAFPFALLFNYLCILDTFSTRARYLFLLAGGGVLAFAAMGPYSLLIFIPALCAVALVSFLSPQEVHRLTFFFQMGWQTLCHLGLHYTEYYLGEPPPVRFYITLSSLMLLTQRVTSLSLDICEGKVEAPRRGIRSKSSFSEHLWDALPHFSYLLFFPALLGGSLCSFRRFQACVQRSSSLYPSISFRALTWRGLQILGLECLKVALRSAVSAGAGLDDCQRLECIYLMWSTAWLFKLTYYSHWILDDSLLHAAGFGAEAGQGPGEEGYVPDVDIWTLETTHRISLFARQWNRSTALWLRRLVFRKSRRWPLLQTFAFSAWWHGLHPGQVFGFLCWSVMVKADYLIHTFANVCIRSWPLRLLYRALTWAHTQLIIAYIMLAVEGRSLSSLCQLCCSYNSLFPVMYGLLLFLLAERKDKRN

[4] = In vivo inhibition of GOAT in C57BL/6 mouse assessed as increase in unacylated-ghrelin level at 3 mg/kg, po BID administered via gavage for 3 days by ELISA relative to control; type: functional; conditions: time 3 day
[5] = In vivo inhibition of GOAT in C57BL/6 mouse assessed as increase in unacylated-ghrelin level at 10 mg/kg, po BID administered via gavage for 3 days by ELISA relative to control; type: functional; conditions: time 3 day
[6] = In vivo inhibition of GOAT in C57BL/6 mouse assessed as decrease in plasma acylated ghrelin level at 0.3 mg/kg, po BID administered via gavage for 3 days by ELISA relative to control; type: functional; conditions: C57BL/6, po, 72 h, time 3 day
[7] = In vivo inhibition of GOAT in C57BL/6 mouse assessed as reduction in ratio of AG to total-ghrelin at 0.3 mg/kg, po BID administered via gavage for 3 days by ELISA relative to control; type: functional; conditions: C57BL/6, po, 72 h, time 3 day
[8] = In vivo inhibition of GOAT in C57BL/6 mouse assessed as decrease in plasma acylated ghrelin level at 10 mg/kg, po BID administered via gavage for 3 days by ELISA relative to control; type: functional; conditions: C57BL/6, po, 72 h, time 3 day
[9] = In vivo inhibition of GOAT in C57BL/6 mouse assessed as reduction in ratio of AG to total-ghrelin at 1 mg/kg, po BID administered via gavage for 3 days by ELISA relative to control; type: functional; conditions: C57BL/6, po, 72 h, time 3 day
[10] = In vivo inhibition of GOAT in C57BL/6 mouse assessed as decrease in plasma acylated ghrelin level at 3 mg/kg, po BID administered via gavage for 3 days by ELISA relative to control; type: functional; conditions: C57BL/6, po, 72 h, time 3 day
[11] = In vivo inhibition of GOAT in C57BL/6 mouse assessed as increase in unacylated-ghrelin level at 1 mg/kg, po BID administered via gavage for 3 days by ELISA relative to control; type: functional; conditions: time 3 day
[12] = In vivo inhibition of GOAT in C57BL/6 mouse assessed as reduction in ratio of AG to total-ghrelin at 10 mg/kg, po BID administered via gavage for 3 days by ELISA relative to control; type: functional; conditions: C57BL/6, po, 72 h, time 3 day
[13] = In vivo inhibition of GOAT in C57BL/6 mouse assessed as increase in unacylated-ghrelin level at 0.3 mg/kg, po BID administered via gavage for 3 days by ELISA relative to control; type: functional; conditions: time 3 day
[14] = In vivo inhibition of GOAT in C57BL/6 mouse assessed as decrease in plasma acylated ghrelin level at 1 mg/kg, po BID administered via gavage for 3 days by ELISA relative to control; type: functional; conditions: C57BL/6, po, 72 h, time 3 day
[15] = In vivo inhibition of GOAT in C57BL/6 mouse assessed as reduction in ratio of AG to total-ghrelin at 3 mg/kg, po BID administered via gavage for 3 days by ELISA relative to control; type: functional; conditions: C57BL/6, po, 72 h, time 3 day
[16] = target: T2, Membrane-bound ghrelin O-acyltransferase MBOAT4; assay: Antagonist activity at mouse GOAT expressed in baculovirus infected sf9 insect cell membrane using ghrelin(1 to 5) pentapeptide as substrate preincubated for 5 mins followed by Palmitoyl-CoA and n-octynoyl-CoA addition and measured after 5 mins by amplex red/H2O2 reagent-based fluorescence method; type: cell membranes
[17] = In vivo inhibition of GOAT in C57BL/6 mouse assessed as reduction in ratio of AG to total-ghrelin at 0.1 mg/kg, po BID administered via gavage for 3 days by ELISA relative to control; type: functional; conditions: C57BL/6, po, 72 h, time 3 day
[18] = In vivo inhibition of GOAT in cynomolgus monkey assessed as reduction in plasma acyl ghrelin AUC (0 to 24 hrs) at 10 mg/kg, po administered as single dose measured after 15 mins to 24 hrs relative to control; type: functional; conditions: Macaca fascicularis, 0.25 h
[19] = In vivo inhibition of GOAT in mouse model of HFHC-diet induced obesity assessed as reduction in acyl ghrelin level at 10 mg/kg, po administered once daily for 7 days relative to control; type: functional; conditions: 168 h, time 7 day
[20] = target: T1, Membrane-bound ghrelin O-acyltransferase MBOAT4; assay: Inhibition of human His-tagged GOAT expressed in baculovirus infected Sf9 cell membrane using biotinylated ghrelin peptide/octanoyl-CoA/palmitoyl CoA as substrate incubated for 80 mins by TR-FRET assay; type: cell membranes
[21] = target: T1, Membrane-bound ghrelin O-acyltransferase MBOAT4; assay: Inhibition of human GOAT expressed in baculovirus infected sf9 insect cell membrane using GSSFLC-acrylodan and octanoyl-CoA as substrate preincubated for 30 mins followed by substrate addition and measured after 3 hrs by HPLC analysis; type: cell membranes
[22] = target: T2, Membrane-bound ghrelin O-acyltransferase MBOAT4; assay: Inhibition of mouse GOAT expressed in baculovirus infected sf9 insect cell microsomes using biotinylated des-acyl ghrelin and octanoyl-CoA -CoA as substrate incubated for 15 mins by HTRF assay; set-up: species or system Microsome
[23] = target: T1, Membrane-bound ghrelin O-acyltransferase MBOAT4; assay: Inhibition of human GOAT expressed in baculovirus infected sf9 insect cell microsomes using biotinylated des-acyl ghrelin and octanoyl-CoA as substrate incubated for 15 mins by HTRF assay; set-up: species or system Microsome
[24] = target: Growth hormone secretagogue receptor type 1 (Homo sapiens, UniProt Q92847); assay: Inhibition of GHSR-1A (unknown origin)
Sequence of Growth hormone secretagogue receptor type 1 (Q92847 whole entry): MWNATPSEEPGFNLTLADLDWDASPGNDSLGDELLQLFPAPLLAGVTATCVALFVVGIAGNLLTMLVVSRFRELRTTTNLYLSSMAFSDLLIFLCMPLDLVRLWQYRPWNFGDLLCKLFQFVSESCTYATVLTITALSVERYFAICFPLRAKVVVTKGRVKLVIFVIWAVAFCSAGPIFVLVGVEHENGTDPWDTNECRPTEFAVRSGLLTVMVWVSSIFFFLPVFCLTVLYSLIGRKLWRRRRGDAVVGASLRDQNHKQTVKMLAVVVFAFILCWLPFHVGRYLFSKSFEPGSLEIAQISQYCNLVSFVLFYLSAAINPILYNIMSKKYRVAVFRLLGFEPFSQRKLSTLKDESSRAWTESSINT

[25] = target: T1, Membrane-bound ghrelin O-acyltransferase MBOAT4; assay: Inhibition of GOAT (unknown origin)

SMILES: CCCC[C@H]1C[C@H](C(=O)NC[C@H]2CCCN2C(=O)[C@@H](NC(=S)CNC)C(C)(C)C)C1
IC50 [3]: 0.03 µM

SMILES: CCCCCCCC(=O)OC[C@H](OC(=O)[C@H](CO)NC(=O)CN)C(=O)N[C@@H](Cc1ccccc1)C(=O)N[C@@H](CC(C)C)C(=O)N[C@@H](CO)C(=O)N1CCC[C@H]1C(=O)N[C@@H](CCC(=O)O)C(=O)N[C@@H](Cc1cnc[nH]1)C(=O)N[C@@H](CCC(N)=O)C(=O)N[C@@H](CCCCN)C(=O)N[C@@H](C)C(=O)N[C@@H](CCC(N)=O)C(=O)N[C@@H](CCC(N)=O)C(=O)N[C@@H](CCCNC(=N)N)C(=O)N[C@@H](CCCCN)C(=O)N[C@@H](CCC(=O)O)C(=O)N[C@@H](CO)C(=O)N[C@@H](CCCCN)C(=O)N[C@@H](CCCCN)C(=O)N1CCC[C@H]1C(=O)N1CCC[C@H]1C(=O)N[C@@H](C)C(=O)N[C@@H](CCCCN)C(=O)N[C@@H](CC(C)C)C(=O)N[C@@H](CCC(N)=O)C(=O)N1CCC[C@H]1C(=O)N[C@@H](CCCNC(=N)N)C(=O)O
IC50 [3]: 7 µM

SMILES: COC(=O)N[C@@H](C)C(=O)N1CCC(CCc2c(N)nc(C)nc2Cl)CC1
fold change (FC) [4]: 2.9 | inhibition in vivo at 3 mg/kg [10]: 66% | inhibition in vivo at 3 mg/kg [15]: 82%

SMILES: Cc1nc(C(F)(F)F)nc(N)c1CCC1CCN(C(=O)[C@H](C)NC(=O)c2ccnn2C)CC1
inhibition in vivo at 0.3 mg/kg [7]: 62% | inhibition in vivo at 1 mg/kg [9]: 79% | inhibition in vivo at 0.1 mg/kg [17]: 57% | inhibition in vivo at 10 mg/kg [12]: 82% | inhibition in vivo at 3 mg/kg [15]: 82%

SMILES: CC1(C)C(=O)C(C#N)=C[C@]2(C)[C@H]3CC[C@]4(C)CCC[C@H]4[C@@H]3CC[C@@H]12
IC50 [21]: 8 µM

SMILES: CCCCCCCC(=O)OC[C@H](NC(=O)[C@H](CO)NC(=O)CN)C(=O)N[C@@H](Cc1ccccc1)C(=O)N[C@H](CN)CC(C)C (H-GSS(Octanoyl)F-X1)
IC50 [3]: 45 µM

SMILES: CCCCCCCC(=O)NC[C@H](NC(=O)[C@H](CO)NC(=O)CN)C(=O)N[C@@H](Cc1ccccc1)C(=O)N[C@H](CN)CC(C)C (H-GS[Dap](Octanoyl)F-X1)
IC50 [3]: 1 µM

Now from value to compound, other results behind:

IC50 [1]: 68.9 nM
SMILES: C[C@H](NC(=O)c1ccn(C)n1)C(=O)N1CCC(CCc2c(N)nc(N)nc2Cl)CC1
inhibition in vivo at 18 mg/kg [2]: 86%

IC50 [1]: 192 nM
SMILES: C[C@H](NC(=O)C1CC1)C(=O)N1CCC(CCc2c(N)nc(N)nc2Cl)CC1
fold change (FC) [4]: 2.53 | fold change (FC) [5]: 2.9 | inhibition in vivo at 0.3 mg/kg [6]: -1% | inhibition in vivo at 0.3 mg/kg [7]: 39% | inhibition in vivo at 10 mg/kg [8]: 48% | inhibition in vivo at 1 mg/kg [9]: 54% | inhibition in vivo at 3 mg/kg [10]: 45% | fold change (FC) [11]: 2.82 | inhibition in vivo at 10 mg/kg [12]: 77% | fold change (FC) [13]: 2.24 | inhibition in vivo at 1 mg/kg [14]: 5% | inhibition in vivo at 3 mg/kg [15]: 71%

IC50 [16]: 7.5 µM
SMILES: CCCCCCN(C(C)=O)C(CNCc1ccccc1)c1ccc2cc(O)ccc2c1 (centres undefined)

IC50 [16]: 13 µM
SMILES: CCCCCCCCN(C(C)=O)C(CNCc1ccccc1)c1ccc2cc(O)ccc2c1 (centres undefined)

IC50 [20]: < 50 nM
SMILES: O=C(O)Cc1csc2cc(O[C@H]3CCc4ncccc43)cc(Cl)c12
inhibition in vivo at 10 mg/kg [18]: 51% | inhibition in vivo at 10 mg/kg [19]: 28%

IC50 [3]: 50 µM
SMILES: CCCCCCC[C@](C)(O)/C=C/[C@H](NC(=O)OCc1ccccc1)C(=O)OC

IC50 [3]: 90 µM
SMILES: CCCCCCC[C@H](O)/C=C/[C@H](NC(=O)OCc1ccccc1)C(=O)OC

IC50 [22]: 3.3 nM | IC50 [23]: 8.6 nM
SMILES: O=C(O)c1ccc2oc(SCc3ccc(Cl)cc3Cl)nc2c1

IC50 [24]: 100 µM | IC50 [25]: 6 nM
SMILES: C[C@@H](O)[C@H](NC(=O)[C@@H]1CCCN1C(=O)[C@H](CO)NC(=O)[C@H](Cc1cccc2ccccc12)NC(=O)[C@H](CN)NC(=O)[C@H](CO)NC(=O)CN)C(N)=O (HELM PEPTIDE1{G.S.[NC[C@H](N[*:1])C(=O)[*:2]].[O=C([C@H](Cc1cccc2ccccc12)N[*:1])[*:2]].S.P.T.[am]}$$$$V2.0)
